Assay results: patent US12358949B2, “Defensin fragments for use in therapy or prophylaxis” (priority 2019, dated 2025)
In brackets after ≈: the same amount, converted by molar mass. Like-named read-outs stand apart in the source and are kept apart here. Where a SMILES comes first, the peptide text is derived from it. [ ]: non-standard residue; d: D form.

What was measured:
[1] = tested on: A. baumannii 4-MRGN; format: cell-based
Method: (§1) The tested bacteria were incubated overnight in 1×TSB broth, centrifuged and washed with 10 mM sodium phosphate buffer containing 1% (w/v) TSB broth. 5×10^5 cfu/ml bacteria were mixed with different peptide concentrations in 10 mM sodium phosphate buffer with 1% (w/v) TSB (final volume 100 μl) and incubated for 2 hours at 37° C. Afterwards we added 100 μl 2×TSB broth and we measured the optical density at 600 nm (Spark 10M, Tecan, Austria). Bacterial growth was monitored for 12 hours, growing at 37° C. with shaking during the measurements each 30 minutes, except for Akkermansia muciniphila which were incubated at 37° C. in an anaerobic jar and growth was measured after 72 hours.

[2] = tested on: A. baumannii DSM 30007; format: cell-based
Method: as §1

[3] = tested on: E. coli BW 25113; format: cell-based
Method: as §1

[4] = tested on: E. faecium DSM 20477; format: cell-based
Method: as §1

[5] = tested on: P. aeruginosa 4-MRGN; format: cell-based
Method: as §1

[6] = tested on: P. aeruginosa ATCC 27853; format: cell-based
Method: as §1

[7] = tested on: P. aeruginosa PAO1; format: cell-based
Method: as §1

[8] = tested on: P. aeruginosa XPAT1; format: cell-based
Method: as §1

[9] = tested on: P. aeruginosa XPAT2; format: cell-based
Method: as §1

[10] = tested on: S. aureus ATCC 25923; format: cell-based
Method: as §1

[11] = tested on: S. aureus USA300; format: cell-based
Method: as §1

[12] = tested on: Y. enterocolitica; format: cell-based
Method: as §1

[13] = tested on: human cell line, red blood cells
Method: As positive control, cells were treated with 2% Triton X-100 while treatment with 0.01% acetic acid was used as negative control. […] Hemolytic activity was normalized to the hemolytic activity of 0.1% Triton X-100. The experiments were carried out in duplicates.
The activity was normalized to the positive control. As positive control, cells were treated with 2% Triton X-100 while treatment with 0.01% acetic acid was used as negative control.

[14] = tested on: E. coli JM83; format: cell-based
Method: as §1

[15] = tested on: E. faecium 475747; format: cell-based
Method: as §1

[16] = tested on: K. pneumoniae 3-MRGN; format: cell-based
Method: as §1

[17] = tested on: K. pneumoniae DSM 30104; format: cell-based
Method: as §1

[18] = tested on: C. albicans 529L; format: cell-based
[19] = tested on: CaCo2/TC7 cells
Method: CaCo2/TC7 (X, X) and HT29 MTX […] […] Experiments were carried out in duplicates.

[20] = tested on: human erythrocytes; assay: Hemolytic assay; format: cell-based
Method: Hemolytic activity was measured after an existing protocol^13. We obtained blood from two voluntary donors (sample collection had been previously approved by the Ethical Committee of the University Hospital of Tübingen, Germany) and 1 ml blood was washed with PBS two times. Afterwards we centrifuged the blood at 1000 g and performed a 1% (v/v) blood suspension in PBS. The blood suspension was incubated with different peptide concentrations (final concentration 0.5%) for one hour at 37° C. Then the samples were centrifuged at 1000 g for 10 minutes and the supernatant was collected and measured at 414 nm. […] These experiments were carried out in duplicates.

[21] = tested on: HT29 MTX E29 cells
Method: CaCo2/TC7 (X, X) and HT29 MTX [MUT] (X, X) were seed in a 96 well plate in 90 μl media (1500 cells/well) and incubated at 37° C. for 24 hours. Afterwards peptide treatment with different concentrations started (volume of 10 μl solved in 0.01% acetic acid) and cells were incubated for 96 hours. Untreated and 1% Triton-X treated cells were used as controls. After the incubation we added 100 μl of CellTiter Glo2.0 solution and started our measurement protocol. The measurement was carried out in a Spark 10M (Tecan), starting with 12 minutes continuously shaking followed by the luminescence measurement with an integration time from 1 second per well. Experiments were carried out in duplicates.

[22] = tested on: S. enterica serovar enteriditis; assay: Turbidity broth assay (MIC); format: cell-based; conditions: after 12 hours
Method: as §1

[23] = tested on: E. coli BW 25113; assay: Turbidity assay, MIC by optical density after 18 h; format: cell-based; set-up: key: XX High activity; X Low activity; No activity
Method: Bactericidal activity of the E. coli and S. aureus strains in the cell wall target experiments as well as the HD5 dimer experiments was assessed as described previously. Log-phase bacteria were collected by centrifugation (2500 rpm, 10 min, […]), washed twice with 10 mM sodium phosphate buffer containing 1% (w/v) TSB broth and the optical density at OD600 nm (OD600=0.1) was determined. Approximately 5×10^5 CFU/ml bacteria were incubated with serial peptide concentrations (1.17-150 μM) in a final volume of 100 μl in 10 mM sodium phosphate buffer containing 1% (w/v) TSB broth for 2 hours at 37° C. After incubation, 100 μl of 6% TSB (w/v) were added and absorbance was measured at 600 nm (Tecan, Switzerland) and monitored for 18 hours. Afterwards, 100 μl per well were plated on LB-plates to determine the numbers of viable bacteria microbiologically. Bactericidal activity is expressed as the LC99.9, the lowest concentration that killed ≥99.9% of bacteria. The experiment was repeated at least three times independently.

[24] = tested on: S. enterica serovar Enteritidis; assay: Turbidity assay, MIC by optical density after 18 h; format: cell-based; set-up: key: XX High activity; X Low activity; No activity
[25] = tested on: E. faecalis ATCC 19433; assay: Turbidity assay, MIC by optical density after 18 h; format: cell-based
[26] = A. baumannii 4-MRGN, after 12 hours
[27] = A. baumannii DSM30007, after 12 hours
[28] = E. faecium 475747, after 12 hours
[29] = E. faecium DSM20477, after 12 hours
[30] = K. pneumoniae 3-MRGN, after 12 hours
[31] = K. pneumoniae DSM30104, after 12 hours
[32] = P. aeruginosa 4-MRGN, after 12 hours
[33] = P. aeruginosa ATCC 27853, after 12 hours
[34] = P. aeruginosa PAO1, after 12 hours
[35] = P. aeruginosa XPAT1, after 12 hours
[36] = P. aeruginosa XPAT2, after 12 hours
[37] = S. aureus ATCC25923, after 12 hours
[38] = S. aureus USA300, after 12 hours
[39] = Y. enterocolitica, after 12 hours

C[C@H](N)C(=O)N[C@H](C(=O)N[C@@H](CS)C(=O)N[C@@H](Cc1ccc(O)cc1)C(=O)N[C@@H](CS)C(=O)N[C@@H](CCCNC(=N)N)C(=O)N[C@H](C(=O)NCC(=O)N[C@@H](CCCNC(=N)N)C(=O)O)[C@@H](C)O)[C@@H](C)O [HD-51-9] (H-ATCYCRTGR-OH; N-terminus and C-terminus assumed)
MIC ([1]; 4-MRGN, 12 h): 25 µM | MIC ([2]; DSM 30007, 12 h): 100 µM | MIC ([3]; BW 25113, 12 h): 25 µM (≈ 25.8 µg/mL) | MIC ([4]; DSM 20477, 12 h): 25 µM | MIC ([5]; 4-MRGN, 12 h): 100 µM | MIC ([6]; ATCC 27853, 12 h): 50 µM | MIC ([7]; PAO1, 12 h): 50 µM | MIC ([8]; XPAT1, 12 h): >100 µM | MIC ([9]; XPAT2, 12 h): >100 µM | MIC ([10]; ATCC 25923, 12 h): 50 µM | MIC ([11]; USA300, 12 h): 50 µM | MIC ([12]; 12 h): 50 to 100 µM | toxic effect in in vitro experiments [13]: no toxicity was observed

CC(=O)N[C@@H](C(=O)N[C@H](CS)C(=O)N[C@H](CO)C(=O)N[C@H](CS)C(=O)N[C@H](CCCNC(=N)N)C(=O)N[C@H](CC(C)C)C(=O)N[C@@H](C(=O)N[C@H](Cc1ccccc1)C(=O)N[C@H](CS)C(=O)N[C@H](CCCNC(=N)N)C(=O)N[C@H](CCCNC(=N)N)C(N)=O)C(C)C)C(C)C [HNP-41-11mod, Ac-vcscrlvfcrr-NH2] (Ac-[dV][dC][dS][dC][dR][dL][dV][dF][dC][dR][dR]-NH2)
MIC ([1]; 4-MRGN, 12 h): 6.25 µM | MIC [1, 26]: 8.6 µg/mL | MIC [2, 27]: 8.6 µg/mL | MIC ([2]; DSM 30007, 12 h): 6.25 µM | MIC ([14]; E. coli JM83, after 12 hours): 8.6 µg/mL | MIC ([14]; JM83, 12 h): 6.25 µM | MIC ([15]; 475747, 12 h): 3.125 µM | MIC [15, 28]: 4.3 µg/mL | MIC ([4]; DSM 20477, 12 h): 6.25 µM | MIC [4, 29]: 8.6 µg/mL | MIC ([16]; 3-MRGN, 12 h): 6.25 µM | MIC [16, 30]: 8.6 µg/mL | MIC ([17]; DSM 30104, 12 h): 6.25 µM | MIC [17, 31]: 8.6 µg/mL | MIC ([5]; 4-MRGN, 12 h): 6.25 µM | MIC [5, 32]: 8.6 µg/mL | MIC ([6]; ATCC 27853, 12 h): 6.25 µM | MIC [6, 33]: 8.6 µg/mL | MIC [7, 34]: 17.3 µg/mL | MIC ([7]; PAO1, 12 h): 12.5 µM | MIC [8, 35]: 17.3 µg/mL | MIC ([8]; XPAT1, 12 h): 12.5 µM | MIC [9, 36]: 17.3 µg/mL | MIC ([9]; XPAT2, 12 h): 12.5 µM | MIC ([10]; ATCC 25923, 12 h): 3.125 µM | MIC [10, 37]: 4.3 µg/mL | MIC [11, 38]: 17.3 µg/mL | MIC ([11]; USA300, 12 h): 12.5 µM | MIC ([12]; 12 h): 6.25 µM | MIC [12, 39]: 8.6 µg/mL | MIC ([18]; 529L, 24 h): 25 µM | MIC ([18]; C. albicans 529L, after 24 hours (Table 5)): 34.6 µg/mL | cytotoxic effects [19]: minor cytotoxic effects | hemolytic toxicity ([20]; at ≤18.75 μM): negligible toxicity | hemolytic activity, in words ([20]; compared to Melittin): low hemolytic activity | cytotoxic effects compared to CaCo2/TC7 [21]: more susceptible

Ac-atcycrtGr-NH2 [HD-51-9mod]
MIC [1, 26]: 12.5 µM | MIC [2, 27]: 25 µM | MIC ([3]; E. coli (BW 25113 per table title), after 12 hours): 25 µM | MIC [15, 28]: 3.125 µM | MIC [4, 29]: 6.25 µM | MIC [16, 30]: >>> | MIC [17, 31]: >>> | MIC [5, 32]: 50 µM | MIC [6, 33]: 12.5 µM | MIC [7, 34]: 50 µM | MIC [8, 35]: >100 µM | MIC [9, 36]: 100 µM | MIC [10, 37]: 12.5 µM | MIC [11, 38]: 12.5 µM | MIC [12, 39]: 50 to 100 µM | MIC [22]: >>> | MIC ([18]; C. albicans 529L, after 12 hours (Table 4)): >100 µM

RGTRCYCTA [HD-51-9rev]
antimicrobial activity (MIC), activity class [23]: XX | antimicrobial activity (MIC), activity class [24]: X | antimicrobial activity, in words [25]: complete dissolving of bactericidal effects
